{
  "source": "patent US7943162B2",
  "about": "“Drug delivery device” (Alcon, Inc., priority 1999, dated 2011)",
  "experiment": "ocular pharmacokinetic study with rabbits implanted with ophthalmic drug delivery device 50 (LC-MS/MS tissue concentration)",
  "type": "in vivo, New Zealand White rabbits",
  "details": "device 50 implanted on outer sclera below Tenon's capsule",
  "source_text": "Device 50 was constructed as shown in FIGS. 5 through 6B, with the following dimensions. […] Inner core 106 was a cylindrical tablet with a diameter of about 5.0 mm and a thickness of about 1.5 mm. […] The pharmaceutically active agent used in tablet 106 was 4,9(11)-Pregnadien-17α,21-diol-3,20-dione, an angiostatic steroid sold by Steraloids, Inc. of Wilton, N.H., and which is more fully disclosed in U.S. Pat. Nos. 5,770,592 and 5,679,666. The formulation of tablet 106 consisted of 99.75 weight percent 4,9(11)-Pregnadien-17α,21-diol-3,20-dione, and 0.25 weight percent magnesium stearate.\nAt one week after implantation, 4 rabbits were euthanized and their right eyes were enucleated. The device 50 was removed from the eyes, and the location of tablet 106 was marked on their sclerae. Following the removal of the anterior segment and the vitreous of each eye and inversion of the thus formed eye-cup, a 10 mm diameter circular zone of retinal tissue, concentric with and below the location of tablet 106 on the sclera, was harvested (the “target site”). […] All these tissues were separately homogenized, and the concentration of angiostatic steroid in each of these tissues was determined via an ocular pharmacokinetic study using high performance liquid chromatography and mass spectrometry analysis (LC-MS/MS). […]",
  "data": [
    {"molecule": "C[C@]12CCC(=O)C=C1CC[C@@H]1C2=CC[C@@]2(C)[C@H]1CC[C@]2(O)C(=O)CO", "note": "[4,9(11)-Pregnadien-17α,21-diol-3,20-dione]", "values": [
      {"measurement": "mean concentration of angiostatic steroid in the retina and the choroid at the target site as a function of time", "setting": "right eye, tablet 99.75 wt% drug, target site below tablet, 1, 3, 6, 9, 12 weeks after implantation, up to twelve weeks", "value": "pharmaceutically effective and generally constant amount"},
      {"measurement": "levels of angiostatic steroid in the retina and the choroid at the second and third sites", "setting": "second site remote from the target site, on the other side of the optic nerve, third site between the second site and the target site", "value": "at or near zero"}
    ]}
  ]
}
